Laboratory results as given in US12496306B2 (REMEDY PHARMACEUTICALS, INC., priority 2021, dated 2025).

Assay: Compounding experiments, bulk solution stability in Tris buffer
Format: physicochemical
Details: 1 mg/ml, at least 24 h, room temperature
From the text: This is because Tris buffers effectively in the range of pH 7-9 (i.e. ±1 pH unit from pKa of 8.1). Outside of this pH range, the bulk solution is no longer buffered even with the addition of Tris. To maintain bulk solution stability, it is necessary to increase the compounding pH above 9, which is outside of the buffering range of Tris.

- minimum compounding pH required to maintain bulk solution stability: ≥ 9.1
SMILES: COc1ccc(Cl)cc1C(=O)NCCc1ccc(S(=O)(=O)NC(=O)NC2CCCCC2)cc1 [glibenclamide, 5-chloro-N-(4-[N-(cyclohexylcarbamoyl)sulfamoyl]phenethyl)-2-methoxybenzamide]
